Where “and” joins values, the source holds several entries; their conditions need not be identical. Identical values can stand only once.
Test system: K-562 leukemia growth, % test/control
Experiment: Anticancer human tumor K-562 cell line growth inhibition;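 also: spheroids exposed to compounds for 7 days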;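 as to viability, T/C: 100% = DMSO vehicle wells and lower values mean fewer viable cells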
Settings: spheroids with HUVEC and MSC; for IC50: curve of first compound; for viability, T/C: stronger effect = lower value
Outline: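 Multicellular complex spheroids of tumor cells with human endothelial cells (HUVEC) and mesenchymal stem cells; the LSD1 inhibitor iadademstat was combined with standard-of-care or investigational agents. Top concentration at or near clinical Cmax, half-log dilutions; final DMSO ≤0.25%.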

[1] = second compound 0.1 µM, first compound 0.0316 µM
[2] = second compound 0.1 µM, first compound 0.1 µM
[3] = second compound 0.316 µM, first compound 0.0316 µM
[4] = second compound 0.316 µM, first compound 0.1 µM
[5] = second compound 1 µM, first compound 0.0316 µM
[6] = second compound 1 µM, first compound 0.1 µM
[7] = second compound 3.16 µM, first compound 0.0316 µM
[8] = second compound 3.16 µM, first compound 0.1 µM
[9] = second compound 10 µM, first compound 0.0316 µM
[10] = second compound 10 µM, first compound 0.1 µM

For `Cn1ncnc1C1c2n[nH]c(=O)c3cc(F)cc(c23)NC1c1ccc(F)cc1` (stereo unspecified) + NC1CC1c1ccc(-c2cccc(O)c2)cc1, the IC50 (second compound 0.1 µM) was greater than 100 nM, the IC50 (second compound 0.316 µM) was greater than 100 nM and the IC50 (second compound 1 µM) was greater than 100 nM. The IC50 (second compound 3.16 µM) was greater than 100 nM, the IC50 (second compound 10 µM) was greater than 100 nM and the viability, T/C (second compound 0.1 µM, first compound 0.000316 µM) was 112%. It also gave a viability, T/C (second compound 0.1 µM, first compound 0.001 µM) of 110%, a viability, T/C (second compound 0.1 µM, first compound 0.00316 µM) of 108% and a viability, T/C (second compound 0.1 µM, first compound 0.01 µM) of 108%. The viability, T/C [1] was 105%, the viability, T/C [2] was 101% and the viability, T/C (second compound 0.316 µM, first compound 0.000316 µM) was 108%. The viability, T/C (second compound 0.316 µM, first compound 0.001 µM) was 105%, the viability, T/C (second compound 0.316 µM, first compound 0.00316 µM) was 105% and the viability, T/C (second compound 0.316 µM, first compound 0.01 µM) was 105%. For the same compound, the viability, T/C [3] was 101%, the viability, T/C [4] was 97.2% and the viability, T/C (second compound 1 µM, first compound 0.000316 µM) was 106%. For the same compound, the viability, T/C (second compound 1 µM, first compound 0.001 µM) was 102%, the viability, T/C (second compound 1 µM, first compound 0.00316 µM) was 97.8% and the viability, T/C (second compound 1 µM, first compound 0.01 µM) was 96.7%. The viability, T/C [5] was 97.2%, the viability, T/C [6] was 95.2% and the viability, T/C (second compound 3.16 µM, first compound 0.000316 µM) was 106%. The viability, T/C (second compound 3.16 µM, first compound 0.001 µM) was 100%, the viability, T/C (second compound 3.16 µM, first compound 0.00316 µM) was 95.6% and the viability, T/C (second compound 3.16 µM, first compound 0.01 µM) was 98.8%. For the same compound, the viability, T/C [7] was 98.5%, the viability, T/C [8] was 93.2% and the viability, T/C (second compound 10 µM, first compound 0.000316 µM) was 101%. The viability, T/C (second compound 10 µM, first compound 0.001 µM) was 101%, the viability, T/C (second compound 10 µM, first compound 0.00316 µM) was 99.7% and the viability, T/C (second compound 10 µM, first compound 0.01 µM) was 98.4%. For the same compound, the viability, T/C [9] was 95.4% and the viability, T/C [10] was 89.1%.
In the case of `Nc1ccn(C2OC(CO)C(O)C2(F)F)c(=O)n1` (stereo unspecified), the viability, T/C (compound 0.000949 µM) is reported as 45.4% and 98.6%, the viability, T/C (compound 0.003 µM) is reported as 18.2% and 91.7% and the viability, T/C (compound 0.00949 µM) is reported as 14.6% and 51.5%. The viability, T/C (compound 0.03 µM) was 13.6% and 21%, the viability, T/C (compound 0.0949 µM) was 15.1% and 19.3% and the viability, T/C (compound 0.3 µM) was 13.9% and 16.9%.
Work on `Nc1ncn(C2CC(O)C(CO)S2)c(=O)n1` (stereo unspecified) + NC1CC1c1ccc(-c2cccc(O)c2)cc1 yielded an IC50 (second compound 0.1 µM) of 91.1 nM, an IC50 (second compound 0.316 µM) of 84.4 nM and an IC50 (second compound 1 µM) of 79 nM. For the same compound, the IC50 (second compound 3.16 µM) was 76.8 nM, the IC50 (second compound 10 µM) was 55.8 nM and the viability, T/C (second compound 0.1 µM, first compound 0.000949 µM) was 110%. It also gave a viability, T/C (second compound 0.1 µM, first compound 0.003 µM) of 108%, a viability, T/C (second compound 0.1 µM, first compound 0.00949 µM) of 107% and a viability, T/C (second compound 0.1 µM, first compound 0.03 µM) of 93.2%. For the same compound, the viability, T/C (second compound 0.1 µM, first compound 0.0949 µM) was 48.4%, the viability, T/C (second compound 0.1 µM, first compound 0.3 µM) was 17.1% and the viability, T/C (second compound 0.316 µM, first compound 0.000949 µM) was 103%. For the same compound, the viability, T/C (second compound 0.316 µM, first compound 0.003 µM) was 104%, the viability, T/C (second compound 0.316 µM, first compound 0.00949 µM) was 103% and the viability, T/C (second compound 0.316 µM, first compound 0.03 µM) was 90.3%. The viability, T/C (second compound 0.316 µM, first compound 0.0949 µM) was 45.5%, the viability, T/C (second compound 0.316 µM, first compound 0.3 µM) was 16.3% and the viability, T/C (second compound 1 µM, first compound 0.000949 µM) was 102%. The viability, T/C (second compound 1 µM, first compound 0.003 µM) was 103%, the viability, T/C (second compound 1 µM, first compound 0.00949 µM) was 104% and the viability, T/C (second compound 1 µM, first compound 0.03 µM) was 88%. It also gave a viability, T/C (second compound 1 µM, first compound 0.0949 µM) of 42.9%, a viability, T/C (second compound 1 µM, first compound 0.3 µM) of 15.6% and a viability, T/C (second compound 3.16 µM, first compound 0.000949 µM) of 98.5%. The viability, T/C (second compound 3.16 µM, first compound 0.003 µM) was 105%, the viability, T/C (second compound 3.16 µM, first compound 0.00949 µM) was 102% and the viability, T/C (second compound 3.16 µM, first compound 0.03 µM) was 85.6%. The viability, T/C (second compound 3.16 µM, first compound 0.0949 µM) was 42.1%, the viability, T/C (second compound 3.16 µM, first compound 0.3 µM) was 16.3% and the viability, T/C (second compound 10 µM, first compound 0.000949 µM) was 98.8%. It also gave a viability, T/C (second compound 10 µM, first compound 0.003 µM) of 101%, a viability, T/C (second compound 10 µM, first compound 0.00949 µM) of 98% and a viability, T/C (second compound 10 µM, first compound 0.03 µM) of 72.6%. For the same compound, the viability, T/C (second compound 10 µM, first compound 0.0949 µM) was 30.5% and the viability, T/C (second compound 10 µM, first compound 0.3 µM) was 12.3%.
`O=C(c1cc(Cc2n[nH]c(=O)c3ccccc23)ccc1F)N1CCN(C(=O)C2CC2)CC1` + NC1CCC(NC2CC2c2ccccc2)CC1 was tested, and the IC50 (second compound 0.1 µM) was greater than 10000 nM, the IC50 (second compound 0.316 µM) was greater than 10000 nM and the IC50 (second compound 1 µM) was greater than 10000 nM. It also gave an IC50 (second compound 3.16 µM) greater than 10000 nM, an IC50 (second compound 10 µM) greater than 10000 nM and a viability, T/C [1] of 98.2%. The viability, T/C [2] was 97.4%, the viability, T/C (second compound 0.1 µM, first compound 0.316 µM) was 96% and the viability, T/C (second compound 0.1 µM, first compound 1 µM) was 94.2%. The viability, T/C (second compound 0.1 µM, first compound 3.16 µM) was 82.7%, the viability, T/C (second compound 0.1 µM, first compound 10 µM) was 51.2% and the viability, T/C [3] was 101%. It also gave a viability, T/C [4] of 99.6%, a viability, T/C (second compound 0.316 µM, first compound 0.316 µM) of 98.6% and a viability, T/C (second compound 0.316 µM, first compound 1 µM) of 95%. The viability, T/C (second compound 0.316 µM, first compound 3.16 µM) was 83.2%, the viability, T/C (second compound 0.316 µM, first compound 10 µM) was 51.2% and the viability, T/C [5] was 99.4%. The viability, T/C [6] was 100%, the viability, T/C (second compound 1 µM, first compound 0.316 µM) was 98.3% and the viability, T/C (second compound 1 µM, first compound 1 µM) was 94.4%. The viability, T/C (second compound 1 µM, first compound 3.16 µM) was 85.6%, the viability, T/C (second compound 1 µM, first compound 10 µM) was 53.1% and the viability, T/C [7] was 102%. It also gave a viability, T/C [8] of 101%, a viability, T/C (second compound 3.16 µM, first compound 0.316 µM) of 98.2% and a viability, T/C (second compound 3.16 µM, first compound 1 µM) of 95%. The viability, T/C (second compound 3.16 µM, first compound 3.16 µM) was 84.8%, the viability, T/C (second compound 3.16 µM, first compound 10 µM) was 54.4% and the viability, T/C [9] was 95.4%. For the same compound, the viability, T/C [10] was 98.8%, the viability, T/C (second compound 10 µM, first compound 0.316 µM) was 98.5% and the viability, T/C (second compound 10 µM, first compound 1 µM) was 92.2%. For the same compound, the viability, T/C (second compound 10 µM, first compound 3.16 µM) was 81% and the viability, T/C (second compound 10 µM, first compound 10 µM) was 53.3%.

From PubChem BioAssay AID1918948 (Molecular Pharmacology Branch, DTP, NCI, 2023)
